We go through 28 compounds from patent US9284333B2, “Fused pyrroledicarboxamides and their use as pharmaceuticals” (SANOFI, priority 2012, dated 2016).

Human TASK-1 channels, sequence (O14649 whole entry, the tested form may be a part): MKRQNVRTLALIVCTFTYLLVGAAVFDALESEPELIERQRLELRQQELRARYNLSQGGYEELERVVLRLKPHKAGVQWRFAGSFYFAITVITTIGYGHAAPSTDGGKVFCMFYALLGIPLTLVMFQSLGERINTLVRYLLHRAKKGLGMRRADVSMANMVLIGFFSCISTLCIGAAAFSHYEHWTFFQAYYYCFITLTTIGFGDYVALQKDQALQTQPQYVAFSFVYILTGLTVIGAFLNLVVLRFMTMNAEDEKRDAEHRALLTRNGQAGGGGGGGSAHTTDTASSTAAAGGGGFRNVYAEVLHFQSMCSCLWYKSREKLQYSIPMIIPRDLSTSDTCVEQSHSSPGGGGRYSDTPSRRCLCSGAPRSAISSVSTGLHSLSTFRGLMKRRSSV

The first experiment concerns the target Human TASK-1 channels (Homo sapiens (Human), UniProt O14649). Description: Determination of the activity on the TASK-1 channel in Xenopus oocytes (two-microelectrode voltage clamp). The class given is cell-based. The conditions noted are these: compound concentration 5 μM. In outline: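 Xenopus oocytes were injected with human TASK-1 cRNA and recorded two days later by two-microelectrode voltage clamp, holding at −90 mV with 500 ms steps to 40 mV. Superfusion used ND96, pH 7.4, at room temperature, with rising compound concentrations; percentage inhibition of control current was fitted to a dose-response curve for IC50.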
In the case of “3,4-Dihydro-1H-pyrrolo[2,1-c][1,4]oxazine-6,8-dicarboxylic acid 6-[(1H-indol-6-ylmethyl)-amide] 8-[((R)-1-phenyl-propyl)-amide] [16je]”, the “TASK-1 inhibition [%] at 5 μM” value stood at 91%.

For `CC[C@@H](NC(=O)c1cc(C(=O)N2CCC[C@@H]2C)n2c1CCCC2)c1ccc2c(c1)COC2=O` [16lz, 3-((S)-2-Methyl-pyrrolidine-1-carbonyl)-5,6,7,8-tetrahydro-indolizine-1-carboxylic acid [(R)-1-(1-oxo-1,3-dihydro-isobenzofuran-5-yl)-propyl]-amide], the inhibition – broadly, the percentage by which the read-out fell short of the control – at 5 µM turned out to be 76%. Still for that read-out and setting: the result for `CC[C@@H](NC(=O)c1cc(C(=O)N2CCCCC2C)n2c1COCC2)c1ccc(C(F)(F)F)nc1` (stereo partly drawn) [16pc, 6-(2-Methyl-piperidine-1-carbonyl)-3,4-dihydro-1H-pyrrolo[2,1-c][1,4]oxazine-8-carboxylic acid [(R)-1-(6-trifluoromethyl-pyridin-3-yl)-propyl]-amide] reads 53%.

Still in this experiment, the particulars now being: human TASK-1 expressed in Xenopus oocytes, room temperature; read-out: IC50 value for TASK-1 inhibition.
As to `CC[C@@H](NC(=O)c1cc(C(=O)NC(C)c2cccc(S(=O)(=O)N(C)C)c2)n2c1COCC2)c1ccccc1` (stereo partly drawn) [16rj, 3,4-Dihydro-1H-pyrrolo[2,1-c][1,4]oxazine-6,8-dicarboxylic acid 6-{[1-(3-dimethylsulfamoyl-phenyl)-ethyl]-amide} 8-[((R)-1-phenyl-propyl)-amide]], the IC50 (usually the concentration needed to halve the response being measured) was 1100 nM. Same read-out and setting: with `CC[C@@H](NC(=O)c1cc(C(=O)N2CCC[C@@H]2C)n2c1COCC2)c1ccc(C#N)s1` [16rd, 6-((S)-2-Methyl-pyrrolidine-1-carbonyl)-3,4-dihydro-1H-pyrrolo[2,1-c][1,4]oxazine-8-carboxylic acid [(R)-1-(5-cyano-thiophen-2-yl)-propyl]-amide] the figure was 450 nM; with `CC[C@@H](NC(=O)c1cc(C(=O)NCc2nccs2)c2n1CCCC2)c1ccccc1` [16md, 5,6,7,8-Tetrahydro-indolizine-1,3-dicarboxylic acid 3-[((R)-1-phenyl-propyl)-amide] 1-[(thiazol-2-ylmethyl)-amide]], 80 nM. Same read-out and setting: the result for `CC[C@@H](NC(=O)c1cc(C(=O)N(C)CC(=O)OC(C)C)n2c1COCC2)c1ccccc1` [16iu, {Methyl-[8-((R)-1-phenyl-propylcarbamoyl)-3,4-dihydro-1H-pyrrolo[2,1-c][1,4]oxazine-6-carbonyl]-amino}-acetic acid isopropyl ester] reads 120 nM.

As for `CC[C@@H](NC(=O)c1cc(C(=O)N2CC[C@H](F)C2)n2c1CCCC2)c1ccccc1` [16mk, 3-((S)-3-Fluoro-pyrrolidine-1-carbonyl)-5,6,7,8-tetrahydro-indolizine-1-carboxylic acid ((R)-1-phenyl-propyl)-amide], the concentration for half-maximal inhibition (IC50) is 550 nM.

On to `CC[C@@H](NC(=O)c1cc(C(=O)N2CCC[C@@H]2c2cnccn2)c2n1CCOC2)c1ccc(F)cc1F` [16pj, 8-((R)-2-Pyrazin-2-yl-pyrrolidine-1-carbonyl)-3,4-dihydro-1H-pyrrolo[2,1-c][1,4]oxazine-6-carboxylic acid [(R)-1-(2,4-difluoro-phenyl)-propyl]-amide], for which the IC50 was determined as 1100 nM. Still for that read-out and setting: with `CC[C@@H](NC(=O)c1cc(C(=O)N2CC[C@H](OC)C2)n2c1COCC2)c1ccccc1` [16ek, 6-((S)-3-Methoxy-pyrrolidine-1-carbonyl)-3,4-dihydro-1H-pyrrolo[2,1-c][1,4]oxazine-8-carboxylic acid ((R)-1-phenyl-propyl)-amide] the figure was 560 nM.

`CC[C@@H](NC(=O)c1cc(C(=O)N2CCC[C@@H]2C)n2c1COC(C)(C)C2)c1ccc(C(F)(F)F)nc1` [16pi, 3,3-Dimethyl-6-((S)-2-methyl-pyrrolidine-1-carbonyl)-3,4-dihydro-1H-pyrrolo[2,1-c][1,4]oxazine-8-carboxylic acid [(R)-1-(6-trifluoromethyl-pyridin-3-yl)-propyl]-amide]: the 50% inhibitory concentration (IC50) worked out at 850 nM. The same measure, in the same setting: with `CC[C@@H](NC(=O)c1cc(C(=O)N2CCC[C@@H]2C)n2c1COCC2)c1c(F)cc(C#N)cc1F` [16ba, 6-((S)-2-Methyl-pyrrolidine-1-carbonyl)-3,4-dihydro-1H-pyrrolo[2,1-c][1,4]oxazine-8-carboxylic acid [(R)-1-(4-cyano-2,6-difluoro-phenyl)-propyl]-amide] the figure was 140 nM.

On to `CC[C@@H](NC(=O)c1cc(C(=O)NCc2ccccc2C#N)n2c1COCC2)c1ccccc1` [16gy, 3,4-Dihydro-1H-pyrrolo[2,1-c][1,4]oxazine-6,8-dicarboxylic acid 6-(2-cyano-benzylamide) 8-[((R)-1-phenyl-propyl)-amide]], for which the half-inhibitory concentration (IC50) is 320 nM.

Turning to `CC[C@@H](NC(=O)c1cc(C(=O)N[C@H](CC)c2ccc(OC)nc2)n2c1COCC2)c1ccccc1` [16j, 3,4-Dihydro-1H-pyrrolo[2,1-c][1,4]oxazine-6,8-dicarboxylic acid 6-{[(R)-1-(6-methoxy-pyridin-3-yl)-propyl]-amide} 8-[((R)-1-phenyl-propyl)-amide]], the half-maximal inhibitory concentration (IC50) was determined as 200 nM.

Consider `CC[C@@H](NC(=O)c1cc(C(=O)N2CCC[C@@H]2C)n2c1COCC2)c1ccc(C(F)(F)F)cc1C(F)(F)F` [16cp, 6-((S)-2-Methyl-pyrrolidine-1-carbonyl)-3,4-dihydro-1H-pyrrolo[2,1-c][1,4]oxazine-8-carboxylic acid [(R)-1-(2,4-bis-trifluoromethyl-phenyl)-propyl]-amide], for which the half-maximal inhibitory concentration (IC50) worked out at 970 nM. On the same count and under the same terms, with `CC[C@@H](NC(=O)c1cc(C(=O)NCC2CCCCC2)n2c1CCCC2)c1ccccc1` [16mp, 5,6,7,8-Tetrahydro-indolizine-1,3-dicarboxylic acid 3-cyclohexylmethyl-amide 1-[((R)-1-phenyl-propyl)-amide]] the figure was 93 nM. Same read-out and setting: with `CC[C@@H](NC(=O)c1cc(C(=O)NCc2ccc(F)cc2F)c2n1CCOC2)c1cnccn1` [16ns, 3,4-Dihydro-1H-pyrrolo[2,1-c][1,4]oxazine-6,8-dicarboxylic acid 8-(2,4-difluoro-benzylamide) 6-[((R)-1-pyrazin-2-yl-propyl)-amide]] the figure was 3100 nM. The same measure, in the same setting: the result for `CC[C@@H](NC(=O)c1cc(C(=O)N2CCC[C@@H]2C)c2n1CCOC2)c1ccccc1` [16ki, 8-((S)-2-Methyl-pyrrolidine-1-carbonyl)-3,4-dihydro-1H-pyrrolo[2,1-c][1,4]oxazine-6-carboxylic acid ((R)-1-phenyl-propyl)-amide] reads 200 nM; that for `CC[C@@H](NC(=O)c1cc(C(=O)N2CCC[C@@H]2C)n2c1COCC2)c1c(F)cccc1F` [16t, 6-((S)-2-Methyl-pyrrolidine-1-carbonyl)-3,4-dihydro-1H-pyrrolo[2,1-c][1,4]oxazine-8-carboxylic acid [(R)-1-(2,6-difluoro-phenyl)-propyl]-amide], 44 nM.

`CC[C@@H](NC(=O)c1cc(C(=O)NC2CC2)n2c1COCC2)c1ccccc1` [16gi, 3,4-Dihydro-1H-pyrrolo[2,1-c][1,4]oxazine-6,8-dicarboxylic acid 6-cyclopropylamide 8-[((R)-1-phenyl-propyl)-amide]]: the IC50 was found to be 1300 nM. On the same count and under the same terms, with `CC[C@@H](NC(=O)c1cc(C(=O)N2CCC[C@@H]2C)n2c1COCC2)c1ccc(SC(F)(F)F)cc1` [16ax, 6-((S)-2-Methyl-pyrrolidine-1-carbonyl)-3,4-dihydro-1H-pyrrolo[2,1-c][1,4]oxazine-8-carboxylic acid [(R)-1-(4-trifluoromethylsulfanyl-phenyl)-propyl]-amide] the figure was 350 nM; with `CC[C@@H](NC(=O)c1cc(C(=O)N2CCOCC2)n2c1COCC2)c1ccccc1` [16eh, 6-(Morpholine-4-carbonyl)-3,4-dihydro-1H-pyrrolo[2,1-c][1,4]oxazine-8-carboxylic acid ((R)-1-phenyl-propyl)-amide], 1700 nM. Still for that read-out and setting: the result for `CC[C@@H](NC(=O)c1cc(C(=O)N2CC[C@H](Oc3ccc(F)cc3)C2)n2c1COCC2)c1ccccc1` [16fu, 6-[(S)-3-(4-Fluoro-phenoxy)-pyrrolidine-1-carbonyl]-3,4-dihydro-1H-pyrrolo[2,1-c][1,4]oxazine-8-carboxylic acid ((R)-1-phenyl-propyl)-amid] reads 240 nM; that for `CC[C@@H](NC(=O)c1cc(C(=O)N[C@H](CC)c2cccc(S(C)(=O)=O)c2)n2c1COCC2)c1ccccc1` [16jh, 3,4-Dihydro-1H-pyrrolo[2,1-c][1,4]oxazine-6,8-dicarboxylic acid 6-{[(R)-1-(3-methanesulfonyl-phenyl)-propyl]-amide}-8-[((R)-1-phenyl-propyl)-amide]], 780 nM; that for `C[C@H](NC(=O)c1cc(C(=O)N[C@H](C)c2ccc(F)cc2)n2c1COCC2)c1ncccn1` (racemic) [16dx, 3,4-Dihydro-1H-pyrrolo[2,1-c][1,4]oxazine-6,8-dicarboxylic acid 6-{[(R)-1-(4-fluoro-phenyl)-ethyl]-amide} 8-[((S)-1-pyrimidin-2-yl-ethyl)-amide]], 1200 nM.

Take `C[C@H]1CCCN1C(=O)c1cc(C(=O)NCc2c(F)cccc2F)c2n1CCOC2` [16y, 6-((S)-2-Methyl-pyrrolidine-1-carbonyl)-3,4-dihydro-1H-pyrrolo[2,1-c][1,4]oxazine-8-carboxylic acid 2,6-difluoro-benzylamide]: the IC50 was 1000 nM.

Take `CC[C@@H](NC(=O)c1cc(C(=O)NCC2CC2)n2c1CCCC2)c1ccccc1` [16mf, 5,6,7,8-Tetrahydro-indolizine-1,3-dicarboxylic acid 3-cyclopropylmethyl-amide 1-[((R)-1-phenyl-propyl)-amide]]: the IC50 was 260 nM. Turning to `CC[C@@H](NC(=O)c1cc(C(=O)N2CCC[C@@H]2CNC(C)=O)n2c1COCC2)c1ccccc1` [16fh, 6-[(R)-2-(Acetylamino-methyl)-pyrrolidine-1-carbonyl]-3,4-dihydro-1H-pyrrolo[2,1-c][1,4]oxazine-8-carboxylic acid ((R)-1-phenyl-propyl)-amide], the IC50 turned out to be 5200 nM.
